US8314103B2, “Pyridyl derivatives, their preparation and use” (Piramal Enterprises Limited, priority 2007, dated 2012)

Legend:
Cytotoxicity assay (MTS) = type: cell-based; conditions: human, panel of HIF over expressing cell lines, average across a panel of HIF overexpressing cell lines, read-out: Cytotoxic Potential (MTS/PI), average IC50
Protocol: Cytotoxicity and Anti-proliferative Assay
Cytotoxic potential of compounds of the present invention was tested using various HIF over expressing cell lines (source and culture conditions as described in Table-1 herein above). Cells were seeded at a density of 3000-5000 cells per well in 180 μL volume in transparent 96 well tissue culture plate (NUNC, USA) and incubated for 12-18 hours at 37° C., 5% CO2. Subsequently, 20 μL of compounds of present invention (diluted in medium at concentrations ranging from 30 μM, 10 μM, 3 μM, 1 μM, 0.3 μM or 0.1 μM) were added to each well. Cells were then incubated for 48 hours at 37° C., 5% CO2. Following the incubation, 20 μL of MTS solution with PMS (Promega) was added in each well. After 4 hours incubation, the absorbance of the fluid in each well was determined at 490 nm using a microwell plate spectrophotometer reader (Molecular Devices, Sunnyvale, Calif., USA). In every experiment, each condition was run in triplicate wells.

HIF-1α = HIF-1α assay (luciferase reporter gene, U251 HRE / U251 pGL3 cells); type: cell-based, human; conditions: SI greater than 4 indicates specificity towards HIF-1α inhibition under hypoxia conditions
Description: • U251-HRE: Genetically engineered U251 human glioma cells stably expressing a recombinant vector (pGL2-TK-HRE) in which the Luciferase reporter gene was under the control of hypoxia-responsive element and G418 vector. • U251-pGL3: To exclude compounds that can inhibit luciferase expression in non-specific and/or HIF-1 independent fashion a control cell line genetically engineered U251 human glioma cells stably expressing a recombinant vector (pGL3), U251-pGL3 was used.
U251 HRE and U251 pGL3 cells were grown and maintained in RPMI1640 medium supplemented with 5% FBS. Cells were seeded in 96 well plate at a density of 1.5×10^4 cells in 180 μL per well and incubated at 37° C., 5% CO2 overnight. […] The plates were incubated under two sets of conditions which were as follows.
• (<1% oxygen (O2), 5% CO2 and 94% Nitrogen, incubation temp 37° C.) Condition 2: Normoxia • (21% O2, 5% CO2 and 74% Nitrogen, incubation temp 37° C.)
Plates were incubated for 24 hours, thereafter cell were lysed with Lysis Buffer followed by addition of substrate. Plates were read for luminescence on POLARSTAR™ (or TOPCOUNT™).
To identify the specificity of the compounds of present invention to inhibit HIF-1α under hypoxia conditions, Specificity Index (SI) was calculated as follows:
An observed SI of greater than 4 indicates specificity towards HIF-1α inhibition under hypoxia conditions.

mTOR = biological target: T1, mTOR (Homo sapiens, UniProt P42345); assay: Cell based mTOR assay; conditions: IGF-I induced AKT/p70S6K1 phosphorylation; read-out: Inhibition of mTOR (cell-based): IC50
T1 construct: endogenous in cells
Protocol: The mTOR assay was designed as given in Biochem J., 2000, 350, 717-722 with modifications as described below.
Cells were seeded in a 96 well microtitre plate at a density of 50,000 cells/cm^2 in appropriate complete cell culture medium. The cells were allowed to adhere for 18-24 hours. The cells were pretreated (in triplicates) with the test compound at a concentration of 10 μM for 30 minutes followed by induction with 400 ng/ml IGF-I for 24 hours (to induce AKT and p70S6K1 phosphorylation). A typical assay would consist of a set of unstimulated well, a set of stimulated and a set each of wells treated with compound and the stimulator. The medium was discarded. The cells were fixed with 100 μl of 3.7% formaldehyde for 15 minutes. The formaldehyde was discarded by inverting the plate and tapping it on a thick tissue paper layer to remove traces. The cells were washed and permeabilized with 200 μL PBS-Triton solution (containing 0.1% triton-X 100 in 1× PBS) three times, incubating the cells each time for 5 minutes. 100 μL blocking solution (10% FCS in PBS-Triton) was added and incubated for 1 hour at room temperature. The blocking solution was discarded and cells were incubated with the primary antibody in PBS-Triton at a dilution of 1:500 for 1 hour at room temperature. [The primary antibody is Phospho-AKT (Ser 473); Cell Signaling; Cat. No. 9271; Phospho p70S6K1 (Thr 389), Cell Signaling, Cat. No. 9205]. The primary antibody solution was discarded and the cells were washed 3 times with PBS-Triton solution and incubated with the HRP-conjugated secondary antibody in PBS-Triton at a dilution of 1:500 for 1 hour at room temperature. The cells were washed 3 times with PBS-Triton followed by two washes with PBS (to remove traces of triton-X 100). The OPD (o-phenylene diamine dihydrochloride) substrate was prepared for detection of the signal by dissolving one tablet set (two tablets) of SigmaFast OPD (Sigma, Cat No. P9187) in 20 mL distilled water, and was protected from light. 100 μL OPD solution was added to the wells and the plate was incubated in the dark for 3-5 minutes (depending upon the development of the colour). The reaction was stopped by adding 50 μL 2 N sulphuric acid (H2SO4). The absorbance was measured at 490 nm. The values were expressed in the treated samples, in terms of percentage or fold decrease in AKT/p70 phosphorylation with respect to the induced sample.

[1] = system: HIF overexpressing cell lines; assay: Anti-proliferative assay (3H-Thymidine incorporation); type: cell-based; conditions: Homo sapiens; average across a panel of HIF overexpressing cell lines; 48 hours; read-out: Anti Proliferative Potential (3H-Thymidine), average IC50
Protocol: The anti-proliferative potential of compounds of present invention across a panel of cancer cell lines as described herein above was determined using ^3H-Thymidine incorporation. […] Cells were seeded at a density of 3000-5000 cells per well in 180 μL volume in transparent 96 well tissue culture plate (NUNC, USA) and incubated for 12-18 hours at 37° C., 5% CO2. Subsequently, 20 μL of compounds of present invention (diluted in medium at concentrations ranging from 30 μM, 10 μM, 3 μM, 1 μM, 0.3 μM or 0.1 μM) were added to each well. Cells were then incubated for 48 hours at 37° C., 5% CO2 After the incubation, all the medium from the plates was aspirated and ^3H-Thymidine was added to all wells at a concentration of 0.25 μCi/well in 200 μL it complete medium (RPMI with 10% FBS). Plates were incubated at 37° C., 5% CO2 for further 6-14 hours. Following this incubation period, cells from 96 well plates were harvested with the help of cell harvester (Packard, USA) on a 96 well glass-filter plate (Unifilter-96, GF/B, Packard, USA). The filter plates were dried completely at 60° C. for 1 hour or overnight at room temperature. After drying, the bottom of the plates was sealed with bottom seals and 0.05 mL/well of scintillate fluid was added per well (Microscint-O, Packard). The plates were sealed from the top, read on Scintillation counter (TopCount, Packard) and percent inhibition and IC50 were calculated.

PI3Kα kinase = PI3Kα kinase (Homo sapiens, UniProt P42336); assay: PI3Kα kinase assay; type: biochemical; conditions: 10 μM ATP; read-out: Inhibition of PI3Kα (kinase): IC50
Sequence of PI3Kα kinase (P42336 whole entry): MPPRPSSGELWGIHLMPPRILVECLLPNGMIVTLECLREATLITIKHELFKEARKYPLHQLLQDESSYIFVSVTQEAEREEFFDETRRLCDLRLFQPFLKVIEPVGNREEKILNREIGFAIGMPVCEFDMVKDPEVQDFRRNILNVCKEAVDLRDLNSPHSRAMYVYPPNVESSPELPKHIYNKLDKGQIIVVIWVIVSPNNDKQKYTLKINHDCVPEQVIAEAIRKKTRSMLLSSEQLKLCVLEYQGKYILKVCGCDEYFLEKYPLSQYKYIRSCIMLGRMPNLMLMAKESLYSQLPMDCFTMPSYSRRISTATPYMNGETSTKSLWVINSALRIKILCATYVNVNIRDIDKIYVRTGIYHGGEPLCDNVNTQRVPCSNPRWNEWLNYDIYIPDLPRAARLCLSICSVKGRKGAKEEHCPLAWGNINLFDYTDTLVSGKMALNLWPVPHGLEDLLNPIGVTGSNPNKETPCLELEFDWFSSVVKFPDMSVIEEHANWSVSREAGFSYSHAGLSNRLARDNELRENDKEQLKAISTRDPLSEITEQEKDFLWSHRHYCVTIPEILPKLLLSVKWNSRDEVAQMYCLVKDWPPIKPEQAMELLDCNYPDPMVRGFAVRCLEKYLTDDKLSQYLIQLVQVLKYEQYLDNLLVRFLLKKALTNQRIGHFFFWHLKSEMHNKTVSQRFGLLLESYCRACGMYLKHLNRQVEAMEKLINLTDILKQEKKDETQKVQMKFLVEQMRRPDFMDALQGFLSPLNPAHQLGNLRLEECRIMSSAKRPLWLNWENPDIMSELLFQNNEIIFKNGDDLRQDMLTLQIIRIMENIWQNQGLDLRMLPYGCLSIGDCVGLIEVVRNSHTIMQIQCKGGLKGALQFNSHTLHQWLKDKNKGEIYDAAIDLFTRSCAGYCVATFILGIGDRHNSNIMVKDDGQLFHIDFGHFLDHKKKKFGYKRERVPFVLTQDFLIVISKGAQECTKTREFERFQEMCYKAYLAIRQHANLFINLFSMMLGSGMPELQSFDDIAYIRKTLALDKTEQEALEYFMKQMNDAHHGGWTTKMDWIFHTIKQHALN
Sequence of PI3Kα kinase (P27986 whole entry partner): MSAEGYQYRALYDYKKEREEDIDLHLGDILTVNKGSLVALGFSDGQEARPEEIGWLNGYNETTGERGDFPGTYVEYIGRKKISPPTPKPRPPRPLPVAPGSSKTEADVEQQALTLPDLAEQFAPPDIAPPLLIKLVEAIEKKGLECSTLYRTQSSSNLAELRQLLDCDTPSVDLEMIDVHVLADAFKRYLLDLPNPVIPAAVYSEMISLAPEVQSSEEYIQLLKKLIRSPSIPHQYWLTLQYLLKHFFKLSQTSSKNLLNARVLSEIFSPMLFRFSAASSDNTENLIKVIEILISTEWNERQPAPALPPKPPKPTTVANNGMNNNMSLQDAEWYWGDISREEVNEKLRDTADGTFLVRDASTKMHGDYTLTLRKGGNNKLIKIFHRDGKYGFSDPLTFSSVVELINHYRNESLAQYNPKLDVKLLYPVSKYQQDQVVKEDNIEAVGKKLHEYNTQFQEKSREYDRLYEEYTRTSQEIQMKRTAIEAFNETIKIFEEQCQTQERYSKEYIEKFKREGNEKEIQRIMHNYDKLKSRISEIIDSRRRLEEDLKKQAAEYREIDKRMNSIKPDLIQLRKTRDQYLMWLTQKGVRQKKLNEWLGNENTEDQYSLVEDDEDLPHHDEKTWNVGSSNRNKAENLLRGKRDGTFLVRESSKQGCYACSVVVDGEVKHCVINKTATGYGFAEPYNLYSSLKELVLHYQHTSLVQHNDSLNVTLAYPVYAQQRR
Protocol: The PI3K kinase assay was designed as given in Cell, 2006, 125, 733-747.
The kinase reaction was carried out in a 25 μL reaction in a 1.5 ml microcentrifuge tube. The reaction mixture consisted of kinase buffer (10 mM Hepes, pH 7.5, 50 mM MgCl2), 20 ng PI3Kα kinase, 12.5 μg phosphotidylinositol (PI), 10 μM adenosine triphosphate (ATP) and 1 μCi 32γP […]. The compounds of the present invention were added at appropriate concentrations. The reactions were incubated at 30° C. for 20 minutes and were stopped by adding 1:1 mixture of methanol and chloroform. The tube contents were mixed on a vortex mixer and centrifuged at 10000 rpm for 2 minutes. 10 μL of the organic (lower) phase was spotted on to a thin layer chromatography (TLC) plate. The spots were resolved in a mobile phase consisting of a 65:35 mixture of n-propanol and 2 M glacial acetic acid. The plates were dried and exposed to an X-ray film. The bands appearing as a result of 32 g P incorporation in PI were quantitated using the QuantityOne (BioRad) densitometry program.

Row | SMILES | IC50 at 48 h (Cytotoxicity assay (MTS)) [nM] | Specificity Index (HIF-1α) | IC50 (mTOR) [nM] | IC50 [1] [nM] | IC50 (PI3Kα kinase) [nM]
1 | NC(=NO)c1ccc(NC(=O)CCl)cn1 [Example 4, 2-Chloro-N-(6-(N′-hydroxycarbamimidoyl)pyridin-3-yl)acetamide] | 2200 ± 300 | >20 | 5000 | 2000 ± 500 | –
2 | O=C(CCl)Nc1ccc(-c2noc(C(F)(F)F)n2)nc1 [Example 29, 2-Chloro-N-[6-(5-(trifluoromethyl)-1,2,4-oxadiazol-3-yl)pyridin-3-yl]acetamide] | 3500 ± 500 | >9 | – | 1500 ± 400 | –
3 | Cc1nc(-c2ccc(NC(=O)CCl)cn2)no1 [Example 30, 2-Chloro-N-[6-(5-methyl-1,2,4-oxadiazol-3-yl)pyridin-3-yl]acetamide] | 3000 ± 500 | >11 | – | 1500 ± 200 | –
4 | O=C(CCl)Nc1ccc(-c2noc(C(F)(F)Cl)n2)nc1 [Example 41a, 2-Chloro-N-[6-(5-(chlorodifluoromethyl)-1,2,4-oxadiazol-3-yl)pyridin-3-yl]acetamide] | 3500 ± 1000 | >10 | – | – | –
5 | O=C(CCl)Nc1ccc(-c2nc(O)cc(C(F)(F)F)n2)nc1 [Example 53, 2-Chloro-N-(6-(4-hydroxy-6-(trifluoromethyl)pyrimidin-2-yl)pyridin-3-yl)acetamide] | 2000 ± 500 | >7 | – | 2000 ± 300 | –
6 | C=CCOc1cc(C(F)(F)F)nc(-c2ccc(NC(=O)CCl)cn2)n1 [Example 60, N-(6-(4-(allyloxy)-6-(trifluoromethyl)pyrimidin-2-yl)pyridin-3yl-)-2-chloroacetamide] | 2000 ± 200 | >15 | 5000 | 800 ± 200 | 1500
7 | COc1cc(C(F)(F)F)nc(-c2ccc(NC(=O)CCl)cn2)n1 [Example 61, 2-Chloro-N-(6-(4-methoxy-6-(trifluoromethyl)pyrimidin-2-yl)pyridin-3yl)acetamide] | 3000 ± 200 | – | 5000 | – | 1000
8 | C=CCOc1nc(-c2ccc(NC(=O)CCl)cn2)nc(C)c1CC [Example 64, N-(6-(4-(allyloxy)-5-ethyl-6-methylpyrimidin-2-yl)pyridin-3yl)-2-chloroacetamide] | 1500 ± 200 | – | 5000 | 1000 ± 200 | < 1000
9 | O=C(CCl)Nc1ccc(-c2nc(Cl)cc(C(F)(F)F)n2)nc1 [Example 71, 2-Chloro-N-(6-(4-chloro-6-(trifluoromethyl)pyrimidin-2-yl)pyridin-3-yl)acetamide] | 1000 ± 200 | >6 | – | 800 ± 200 | –
